{"source": "patent US7972780B2", "about": "“ITPase gene polymorphisms associated with adverse drug reactions to azathioprine therapy” (Guy's and St. Thomas' NHS Foundation Trust, priority 2004, dated 2011)", "key": {"patients": {"test_system": "patients", "settings": "Dubinsky et al. 2001; cited from earlier work"}, "[1]": {"test_system": "Caucasian patients with IBD", "settings": "for Odds ratio, All side effects: ADR n = 62 vs controls n = 68; for Odds ratio, Hepatotoxicity / Odds ratio, Other: n = 4 vs controls; for Odds ratio, Neutropenia: n = 11 vs controls; for Odds ratio, Flu-like symptoms: n = 16 vs controls"}, "[2]": {"settings": "ITPA 94C>A, TPMT heterozygous genotypes excluded"}}, "note": "Like-named read-outs stand apart in the source and are kept apart here.", "data": [{"smiles": "Nc1nc2nc[nH]c2c(=S)[nH]1", "note": "[thioguanine, 6-thioguanine]", "values": [{"measurement": "use in patients with 6-MP/AZA-related toxicity", "setting": "patients", "result": "used successfully"}]}, {"smiles": "Cn1cnc([N+](=O)[O-])c1Sc1ncnc2nc[nH]c12", "note": "[azathioprine]", "values": [{"measurement": "Odds ratio, All side effects", "setting": "[1]; ITPA 94C > A variant genotype", "result": 4.2}, {"measurement": "Odds ratio, Hepatotoxicity", "setting": "[1]; ITPA 94C > A", "result": 10.3}, {"measurement": "Odds ratio, Other", "setting": "[1]; ITPA 94C > A", "result": 3.4}, {"measurement": "Odds ratio, Rash", "setting": "[1]; ITPA 94C > A, n = 6 vs controls", "result": 10.3}, {"measurement": "Odds ratio, Pancreatitis", "setting": "[1]; ITPA 94C > A, n = 8 vs controls", "result": 6.2}, {"measurement": "Odds ratio, Neutropenia", "setting": "[1]; ITPA 94C > A", "result": 1.0}, {"measurement": "Odds ratio, Nausea and vomiting", "setting": "[1]; ITPA 94C > A, n = 13 vs controls", "result": 3.1}, {"measurement": "Odds ratio, Flu-like symptoms", "setting": "[1]; ITPA 94C > A", "result": 4.7}, {"measurement": "Odds ratio, Nausea and vomiting", "setting": "[1]; [2]", "result": 6.2}, {"measurement": "Odds ratio, Pancreatitis", "setting": "[1]; [2]", "result": 7.8}, {"measurement": "Odds ratio, Rash", "setting": "[1]; [2]", "result": 15.5}, {"measurement": "Odds ratio, adverse drug reactions", "setting": "[1]; ITPA 94C>A, TPMT heterozygous genotypes excluded from side-effect cohort", "result": 5.3}, {"measurement": "Odds ratio, All side effects", "setting": "[1]; ITPA IVS2 + 21A > C variant genotype", "result": 0.7}, {"measurement": "Odds ratio, Hepatotoxicity", "setting": "[1]; ITPA IVS2 + 21A > C", "result": 0.5}, {"measurement": "Odds ratio, Other", "setting": "[1]; ITPA IVS2 + 21A > C", "result": 4.2}, {"measurement": "Odds ratio, Rash", "setting": "[1]; ITPA IVS2 + 21A > C, n = 6 vs controls", "result": 0.9}, {"measurement": "Odds ratio, Pancreatitis", "setting": "[1]; ITPA IVS2 + 21A > C, n = 8 vs controls", "result": 0.6}, {"measurement": "Odds ratio, Neutropenia", "setting": "[1]; ITPA IVS2 + 21A > C", "result": 0.4}, {"measurement": "Odds ratio, Nausea and vomiting", "setting": "[1]; ITPA IVS2 + 21A > C, n = 13 vs controls", "result": 0.4}, {"measurement": "Odds ratio, Flu-like symptoms", "setting": "[1]; ITPA IVS2 + 21A > C", "result": 1.0}, {"measurement": "Odds ratio, All side effects", "setting": "[1]; TPMT *3A + C variant genotype", "result": 1.7}, {"measurement": "Odds ratio, Hepatotoxicity", "setting": "[1]; TPMT *3A + C", "result": 2.9}, {"measurement": "Odds ratio, Rash", "setting": "[1]; TPMT *3A + C, n = 6 vs controls", "result": 4.4}, {"measurement": "Odds ratio, Pancreatitis", "setting": "[1]; TPMT *3A + C, n = 8 vs controls", "result": 1.3}, {"measurement": "Odds ratio, Neutropenia", "setting": "[1]; TPMT *3A + C", "result": 0.9}, {"measurement": "Odds ratio, Nausea and vomiting", "setting": "[1]; TPMT *3A + C, n = 13 vs controls", "result": 5.5}, {"measurement": "Odds ratio, Flu-like symptoms", "setting": "[1]; TPMT *3A + C", "result": 0.3}, {"measurement": "Odds ratio, risk of experiencing an adverse drug reaction", "setting": "[1]; TPMT and ITPA 94C>A genotypes combined", "result": 3.5}, {"measurement": "patients remaining intolerant on re-challenge with reduced dose", "setting": "[1]; of the 4 re-challenged patients heterozygous for a variant TPMT allele", "result": "two patients remained intolerant"}, {"measurement": "patients in whom therapy could be continued at full dose", "setting": "[1]; of the 62 patients suffering adverse drug reactions", "result": 5}, {"measurement": "patients who tolerated a reduced dose", "setting": "[1]; patients with ITPA 94C>A alleles", "result": "3 of 6"}, {"measurement": "Odds ratio, Rash", "setting": "IBD patients; ITPA 94C>A, 6 patients", "result": 10.833}, {"measurement": "Odds ratio, flu-like symptoms", "setting": "IBD patients; ITPA 94C>A, 11 patients", "result": 6.190}, {"measurement": "Odds ratio, adverse drug reactions to AZA therapy", "setting": "IBD patients; ITPA 94C>A, 64 ADR patients vs 71 without side-effects, dominant model", "result": 4.239}, {"measurement": "Odds ratio, Nausea and vomiting", "setting": "IBD patients; variant TPMT genotypes, subset of 14 patients", "result": 5.079}]}]}
